Source: article PMC8016998, “Identification of potential therapeutic antimicrobial peptides against Acinetobacter baumannii in a mouse model of pneumonia” (Scientific Reports, 2021)
Where two headings read alike, the source gives them in different places. No end group written: not given here.

Legend:
[1] = test system: Acinetobacter baumannii 17,978; format: cell-based;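 further: CLSI broth microdilution in 96-well polypropylene plates, MBC taken as lowest concentration giving no growth when clear wells were subcultured on LB agar for 24 h at 37 °C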
[2] = test system: MDRAB clinical strains; format: cell-based, Acinetobacter baumannii; details: range over MDRAB clinical strains (details in Supplementary Table 2); subculture on LB agar, 24 h 37 °C
Description: (§2) MBC were determined by extending the MIC procedure in sterilized 96-well polypropylene microtiter plates according to the broth microdilution guidelines of the Clinical and Laboratory Standards Institute with some modification[47]. […] In addition, 10 µL was drawn from each well with no visible turbidity onto LB agar plates and incubated for 24 h at 37 °C. The lowest concentration showing no visible growth on agar subculture was used as the MBC value. All experiments were performed in triplicate.

[3] = test system: MDRAB clinical strain J49; format: cell-based, Acinetobacter baumannii
[4] = test system: MDRAB clinical strain K2; format: cell-based, Acinetobacter baumannii
Description: as §2

[5] = test system: MDRAB clinical strain Y92; format: cell-based, Acinetobacter baumannii
Description: as §2

[6] = test system: MDRAB clinical strain W11; format: cell-based, Acinetobacter baumannii
[7] = test system: MDRAB clinical strain U80; format: cell-based, Acinetobacter baumannii
Description: as §2

[8] = test system: MDRAB clinical strain U95; format: cell-based, Acinetobacter baumannii
Description: as §2

[9] = test system: MDRAB clinical strain O59; format: cell-based, Acinetobacter baumannii
Description: as §2

[10] = test system: MDRAB clinical strain D29; format: cell-based, Acinetobacter baumannii
Description: as §2

[11] = test system: MDRAB clinical strain L87; format: cell-based, Acinetobacter baumannii
Description: as §2

[12] = test system: MDRAB clinical strain AO80; format: cell-based, Acinetobacter baumannii
[13] = test system: MDRAB clinical strain AS40; format: cell-based, Acinetobacter baumannii
Description: as §2

[14] = test system: MDRAB clinical strain AK29; format: cell-based, Acinetobacter baumannii
Description: as §2

[15] = test system: MDRAB clinical strain AK61; format: cell-based, Acinetobacter baumannii
Description: as §2

[16] = test system: MDRAB clinical strain AE5; format: cell-based, Acinetobacter baumannii
Description: as §2

[17] = test system: MDRAB clinical strain AE6; format: cell-based, Acinetobacter baumannii
[18] = test system: MDRAB clinical strain AF11; format: cell-based, Acinetobacter baumannii
Description: as §2

[19] = test system: MDRAB clinical strain AF12; format: cell-based, Acinetobacter baumannii
Description: as §2

[20] = test system: MDRAB clinical strain AF93; format: cell-based, Acinetobacter baumannii
Description: as §2

[21] = test system: MDRAB clinical strain AG51; format: cell-based, Acinetobacter baumannii
[22] = test system: MDRAB clinical strain AN10; format: cell-based, Acinetobacter baumannii
Description: as §2

[23] = test system: MDRAB clinical strain AL87; format: cell-based, Acinetobacter baumannii
[24] = test system: MDRAB clinical strain AZ93; format: cell-based, Acinetobacter baumannii
Description: as §2

[25] = test system: Acinetobacter baumannii 19,606; format: cell-based; details: 19,606, 24 h
[26] = test system: MDRAB strain BF50; format: cell-based, Acinetobacter baumannii; details: 24 h
Description: (§1) All AMPs and TP4 derivatives used in this study were synthesized by Kelowna International Scientific Inc. (Taipei City, Taiwan) with more than 95% purity, and their molecular weights were verified by mass spectrum analysis. MBC were determined by extending the MIC procedure in sterilized 96-well polypropylene microtiter plates according to the broth microdilution guidelines of the Clinical and Laboratory Standards Institute with some modification. Briefly, 5 × 10^5 CFU/mL of bacteria were inoculated in LB medium containing AMPs or antibiotic at final concentrations ranging from 512 to 1 μg/mL (from serial twofold dilutions). After incubation for 24 h at 37 °C, the lowest concentration showing no visible growth was used as the MIC value. In addition, 10 µL was drawn from each well with no visible turbidity onto LB agar plates and incubated for 24 h at 37 °C. The lowest concentration showing no visible growth on agar subculture was used as the MBC value. All experiments were performed in triplicate.

[27] = test system: MDRAB strain MO91; format: cell-based, Acinetobacter baumannii; details: 24 h
Description: as §1

In the case of GLGSVFGRLARILGRVIPKV-NH2 [Pilosulin], the MBC ([1]; 10 µL from wells without turbidity onto LB agar, 24 h at 37 °C, triplicate) is reported as 32 µg/mL, the MBC [2] is reported as 8 to 32 µg/mL and the MIC ([3]; strain J49, broth microdilution, LB, 24 h 37 °C) is reported as 16 µg/mL. It also gave an MBC ([3]; strain J49, subculture on LB agar, 24 h 37 °C) of 16 µg/mL, an MIC ([4]; strain K2, broth microdilution, LB, 24 h 37 °C) of 16 µg/mL and an MBC ([4]; strain K2, subculture on LB agar, 24 h 37 °C) of 32 µg/mL. It also gave an MIC ([5]; strain Y92, broth microdilution, LB, 24 h 37 °C) of 8 µg/mL, an MBC ([5]; strain Y92, subculture on LB agar, 24 h 37 °C) of 8 µg/mL and an MIC ([6]; strain W11, broth microdilution, LB, 24 h 37 °C) of 16 µg/mL. For the same substance, the MBC ([6]; strain W11, subculture on LB agar, 24 h 37 °C) was 16 µg/mL, the MIC ([7]; strain U80, broth microdilution, LB, 24 h 37 °C) was 16 µg/mL and the MBC ([7]; strain U80, subculture on LB agar, 24 h 37 °C) was 16 µg/mL. The MIC ([8]; strain U95, broth microdilution, LB, 24 h 37 °C) was 32 µg/mL, the MBC ([8]; strain U95, subculture on LB agar, 24 h 37 °C) was 32 µg/mL and the MIC ([9]; strain O59, broth microdilution, LB, 24 h 37 °C) was 16 µg/mL. The MBC ([9]; strain O59, subculture on LB agar, 24 h 37 °C) was 16 µg/mL, the MIC ([10]; strain D29, broth microdilution, LB, 24 h 37 °C) was 16 µg/mL and the MBC ([10]; strain D29, subculture on LB agar, 24 h 37 °C) was 32 µg/mL. The MIC ([11]; strain L87, broth microdilution, LB, 24 h 37 °C) was 16 µg/mL, the MBC ([11]; strain L87, subculture on LB agar, 24 h 37 °C) was 16 µg/mL and the MIC ([12]; strain AO80, broth microdilution, LB, 24 h 37 °C) was 16 µg/mL. The MBC ([12]; strain AO80, subculture on LB agar, 24 h 37 °C) was 32 µg/mL, the MIC ([13]; strain AS40, broth microdilution, LB, 24 h 37 °C) was 16 µg/mL and the MBC ([13]; strain AS40, subculture on LB agar, 24 h 37 °C) was 16 µg/mL. The MIC ([14]; strain AK29, broth microdilution, LB, 24 h 37 °C) was 16 µg/mL, the MBC ([14]; strain AK29, subculture on LB agar, 24 h 37 °C) was 16 µg/mL and the MIC ([15]; strain AK61, broth microdilution, LB, 24 h 37 °C) was 16 µg/mL. It also gave an MBC ([15]; strain AK61, subculture on LB agar, 24 h 37 °C) of 16 µg/mL, an MIC ([16]; strain AE5, broth microdilution, LB, 24 h 37 °C) of 8 µg/mL and an MBC ([16]; strain AE5, subculture on LB agar, 24 h 37 °C) of 16 µg/mL. For the same substance, the MIC ([17]; strain AE6, broth microdilution, LB, 24 h 37 °C) was 16 µg/mL, the MBC ([17]; strain AE6, subculture on LB agar, 24 h 37 °C) was 16 µg/mL and the MIC ([18]; strain AF11, broth microdilution, LB, 24 h 37 °C) was 8 µg/mL. For the same substance, the MBC ([18]; strain AF11, subculture on LB agar, 24 h 37 °C) was 16 µg/mL, the MIC ([19]; strain AF12, broth microdilution, LB, 24 h 37 °C) was 8 µg/mL and the MBC ([19]; strain AF12, subculture on LB agar, 24 h 37 °C) was 16 µg/mL. For the same substance, the MIC ([20]; strain AF93, broth microdilution, LB, 24 h 37 °C) was 8 µg/mL, the MBC ([20]; strain AF93, subculture on LB agar, 24 h 37 °C) was 8 µg/mL and the MIC ([21]; strain AG51, broth microdilution, LB, 24 h 37 °C) was 8 µg/mL. For the same substance, the MBC ([21]; strain AG51, subculture on LB agar, 24 h 37 °C) was 16 µg/mL, the MIC ([22]; strain AN10, broth microdilution, LB, 24 h 37 °C) was 8 µg/mL and the MBC ([22]; strain AN10, subculture on LB agar, 24 h 37 °C) was 8 µg/mL. It also gave an MIC ([23]; strain AL87, broth microdilution, LB, 24 h 37 °C) of 8 µg/mL, an MBC ([23]; strain AL87, subculture on LB agar, 24 h 37 °C) of 8 µg/mL and an MIC ([24]; strain AZ93, broth microdilution, LB, 24 h 37 °C) of 16 µg/mL. The MBC ([24]; strain AZ93, subculture on LB agar, 24 h 37 °C) was 16 µg/mL.
With FIHHIIGGLFSAGKAIHRLIRRRRR [TP4] the MBC ([1]; 17,978, 24 h) was 16 µg/mL, the MIC ([1]; 17,978, 24 h) was 16 µg/mL and the MBC [25] was 16 µg/mL. The MIC [25] was 16 µg/mL, the MBC ([3]; 24 h) was 16 µg/mL and the MIC ([3]; 24 h) was 16 µg/mL. The MBC ([4]; 24 h) was 32 µg/mL, the MIC ([4]; 24 h) was 16 µg/mL and the MBC ([5]; 24 h) was 16 µg/mL. It also gave an MIC ([5]; 24 h) of 16 µg/mL, an MBC ([6]; 24 h) of 16 µg/mL and an MIC ([6]; 24 h) of 16 µg/mL. It also gave an MBC ([7]; 24 h) of 32 µg/mL, an MIC ([7]; 24 h) of 32 µg/mL and an MBC ([8]; 24 h) of 64 µg/mL. It also gave an MIC ([8]; 24 h) of 32 µg/mL, an MBC ([9]; 24 h) of 32 µg/mL and an MIC ([9]; 24 h) of 32 µg/mL. It also gave an MBC ([10]; 24 h) of 32 µg/mL, an MIC ([10]; 24 h) of 32 µg/mL and an MBC ([11]; 24 h) of 32 µg/mL. The MIC ([11]; 24 h) was 32 µg/mL, the MBC ([12]; 24 h) was 32 µg/mL and the MIC ([12]; 24 h) was 32 µg/mL. It also gave an MBC ([13]; 24 h) of 32 µg/mL, an MIC ([13]; 24 h) of 32 µg/mL and an MBC ([14]; 24 h) of 16 µg/mL. The MIC ([14]; 24 h) was 16 µg/mL, the MBC ([15]; 24 h) was 32 µg/mL and the MIC ([15]; 24 h) was 32 µg/mL. It also gave an MBC ([16]; 24 h) of 32 µg/mL, an MIC ([16]; 24 h) of 16 µg/mL and an MBC ([17]; 24 h) of 16 µg/mL. For the same substance, the MIC ([17]; 24 h) was 16 µg/mL, the MBC ([18]; 24 h) was 16 µg/mL and the MIC ([18]; 24 h) was 16 µg/mL. It also gave an MBC ([19]; 24 h) of 16 µg/mL, an MIC ([19]; 24 h) of 16 µg/mL and an MBC ([20]; 24 h) of 16 µg/mL. It also gave an MIC ([20]; 24 h) of 16 µg/mL, an MBC ([21]; 24 h) of 16 µg/mL and an MIC ([21]; 24 h) of 8 µg/mL. The MBC ([22]; 24 h) was 8 µg/mL, the MIC ([22]; 24 h) was 8 µg/mL and the MBC ([23]; 24 h) was 16 µg/mL. For the same substance, the MIC ([23]; 24 h) was 16 µg/mL, the MBC ([24]; 24 h) was 16 µg/mL and the MIC ([24]; 24 h) was 16 µg/mL. For the same substance, the MBC [26] was 16 µg/mL, the MIC [26] was 16 µg/mL and the MBC [27] was 32 µg/mL. For the same substance, the MIC [27] was 16 µg/mL.
